Laboratory results as given in ChEMBL document CHEMBL3808324, “Promising Therapeutic Potential of P2X7 Modulators” (ACS Med Chem Lett, 2016).
pIC50: −log10 of the molar value.

Assays:
[1] = target: T1, P2X purinoceptor 7 (Homo sapiens) (UniProt Q99572); assay: (§1) Antagonist activity against ATP-gated P2X7 receptor in LPS-stimulated human PBMC assessed as reduction in P2X7 agonist 2'(3')-O-(4-benzoylbenzoyl) adenosine 5'-triphosphate-induced IL-1beta at 1 uM incubated for 30 mins after 1 hr pre-treatment with LPS followed by Bz-ATP-stimulation for 1.5 hrs by ELISA; parameters: scale not given: the % may be the effect or the level left
T1 sequence (whole entry): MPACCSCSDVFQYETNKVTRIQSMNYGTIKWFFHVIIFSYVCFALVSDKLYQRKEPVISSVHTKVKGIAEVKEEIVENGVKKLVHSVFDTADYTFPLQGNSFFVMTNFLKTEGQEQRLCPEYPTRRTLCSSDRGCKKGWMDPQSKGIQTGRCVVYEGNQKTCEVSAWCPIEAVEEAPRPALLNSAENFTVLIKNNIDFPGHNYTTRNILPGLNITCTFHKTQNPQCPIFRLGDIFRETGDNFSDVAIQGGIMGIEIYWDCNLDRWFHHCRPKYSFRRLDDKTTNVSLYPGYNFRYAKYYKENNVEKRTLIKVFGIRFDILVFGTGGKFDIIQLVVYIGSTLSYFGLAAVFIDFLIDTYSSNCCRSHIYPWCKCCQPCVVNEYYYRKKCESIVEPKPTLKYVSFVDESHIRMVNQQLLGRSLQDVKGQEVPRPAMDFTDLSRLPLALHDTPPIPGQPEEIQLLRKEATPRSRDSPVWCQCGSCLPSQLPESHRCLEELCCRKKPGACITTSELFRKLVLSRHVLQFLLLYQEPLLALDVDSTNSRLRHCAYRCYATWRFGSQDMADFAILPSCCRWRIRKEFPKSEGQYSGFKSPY

[2] = target: T1, P2X purinoceptor 7 (Homo sapiens); assay: as §1, with “at 10” for “at 1”; parameters: scale not given: the % may be the effect or the level left
[3] = target: T2, P2X purinoceptor 7 (Rattus norvegicus, UniProt Q64663); assay: Antagonist activity against rat recombinant ATP-gated P2X7 receptor expressed in human 1321N1 cells assessed as reduction in BzATP -induced Ca2+ flux pre-incubated for 30 mins before BzATP addition by calcium-4 dye based FLIPR assay; assay type: cell-based
T2 sequence (Q64663 whole entry): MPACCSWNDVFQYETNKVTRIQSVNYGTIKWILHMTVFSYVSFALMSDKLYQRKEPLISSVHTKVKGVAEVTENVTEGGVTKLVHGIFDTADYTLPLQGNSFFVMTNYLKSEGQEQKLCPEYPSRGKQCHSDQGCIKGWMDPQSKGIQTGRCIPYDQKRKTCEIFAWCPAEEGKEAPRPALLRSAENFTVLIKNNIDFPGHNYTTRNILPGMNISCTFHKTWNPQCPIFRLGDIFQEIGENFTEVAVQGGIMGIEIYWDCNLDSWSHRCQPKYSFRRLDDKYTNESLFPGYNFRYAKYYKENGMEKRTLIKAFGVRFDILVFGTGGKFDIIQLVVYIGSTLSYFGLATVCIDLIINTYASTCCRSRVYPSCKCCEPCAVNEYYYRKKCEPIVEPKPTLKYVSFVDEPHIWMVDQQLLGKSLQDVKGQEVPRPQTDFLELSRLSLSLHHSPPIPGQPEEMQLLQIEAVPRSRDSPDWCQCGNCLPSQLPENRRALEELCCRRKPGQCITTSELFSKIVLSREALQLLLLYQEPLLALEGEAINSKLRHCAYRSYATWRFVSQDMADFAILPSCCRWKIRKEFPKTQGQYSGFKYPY

| SMILES | Activity [1] [%] | Activity [2] [%] | pIC50 [3] |
| --- | --- | --- | --- |
| O=C(c1cccc(Cl)c1Cl)N1CCc2c(ncnc2-n2nccn2)C1 | 71.8 | – | – |
| O=C(c1cccc(Cl)c1Cl)N1CCc2c(ncnc2-c2ccn[nH]2)C1 | 14.2 | – | – |
| O=C(c1cccc(C(F)(F)F)c1Cl)N1CCc2c(ncnc2-c2ccccn2)C1 | 26.9 | – | – |

The next lines start with the values.

| Activity [1] [%] | Activity [2] [%] | pIC50 [3] | SMILES |
| --- | --- | --- | --- |
| 104 | 100 | – | Cc1nc2c(c(-c3c(C)noc3C)n1)CCN(C(=O)c1cccc(C(F)(F)F)c1Cl)C2 |
| – | 2 | 5.84 | COc1cccc(C(=O)N2Cc3nc(C)nc(-c4ccn[nH]4)c3CC2C)c1F (stereo not drawn) |
| – | -6.1 | – | Cc1nc2c(c(-c3ccn[nH]3)n1)C[C@@H](C)N(C(=O)c1ccc(F)c(C(F)(F)F)c1Cl)C2 (single isomer, unassigned) |
